{
  "source": "paper PMC7562955",
  "about": "(Nature Communications, 2020)",
  "format_in_all_cases": "cell-based",
  "key": {"mouse TLR7": {"biological_target": "T1, mouse TLR7 (Mus musculus, UniProt P58681)", "T1 construct": "host or cells: HEK293 (293XL-mTLR7)", "T1 sequence (P58681 27-1050)": "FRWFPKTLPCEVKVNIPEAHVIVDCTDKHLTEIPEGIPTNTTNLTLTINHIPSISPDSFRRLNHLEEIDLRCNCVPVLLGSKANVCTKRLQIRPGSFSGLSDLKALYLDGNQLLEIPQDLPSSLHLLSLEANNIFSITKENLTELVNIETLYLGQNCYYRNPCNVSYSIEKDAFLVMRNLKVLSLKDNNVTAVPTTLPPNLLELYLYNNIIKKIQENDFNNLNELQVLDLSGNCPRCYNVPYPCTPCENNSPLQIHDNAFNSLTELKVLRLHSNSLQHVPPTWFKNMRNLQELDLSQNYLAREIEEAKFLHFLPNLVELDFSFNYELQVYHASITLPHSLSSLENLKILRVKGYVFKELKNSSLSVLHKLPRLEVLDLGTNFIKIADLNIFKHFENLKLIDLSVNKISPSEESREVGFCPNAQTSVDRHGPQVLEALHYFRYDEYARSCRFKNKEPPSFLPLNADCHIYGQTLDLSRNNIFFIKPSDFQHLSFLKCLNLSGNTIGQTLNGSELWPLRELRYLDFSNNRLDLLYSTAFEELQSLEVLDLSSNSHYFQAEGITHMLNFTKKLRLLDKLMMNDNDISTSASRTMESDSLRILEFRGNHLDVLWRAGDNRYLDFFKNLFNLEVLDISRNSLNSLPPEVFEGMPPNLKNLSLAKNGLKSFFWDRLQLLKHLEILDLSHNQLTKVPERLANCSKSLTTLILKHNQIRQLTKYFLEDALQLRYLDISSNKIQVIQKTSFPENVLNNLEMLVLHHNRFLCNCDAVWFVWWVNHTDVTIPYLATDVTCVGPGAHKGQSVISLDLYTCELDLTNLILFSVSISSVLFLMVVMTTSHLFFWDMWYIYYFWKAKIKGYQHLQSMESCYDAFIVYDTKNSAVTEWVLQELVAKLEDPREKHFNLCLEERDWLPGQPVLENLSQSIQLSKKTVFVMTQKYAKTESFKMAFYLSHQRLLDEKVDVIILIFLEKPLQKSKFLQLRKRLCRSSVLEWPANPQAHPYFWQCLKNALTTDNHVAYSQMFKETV", "assay": "Mouse TLR7 reporter gene assay (NF-kB luciferase, HEK293)", "description": "Compounds were dissolved in dimethyl sulfoxide. The day before transfection, mouse TLR7 genestably-expressing HE293 cell line (293XL-mTLR7 cell, InvivoGen, USA) and mouse TLR9 genestably-expressing HEK293 cell line (293-mTLR9 cell, InvivoGen) were seeded in collagen-coated 6-well plate (AGC techno glass) at 3 × 10^5 cells/well in DMEM (GIBCO) with 10% fetal bovine serum (GIBCO), and 10 μg ml^−1 Blastcidin S HCl (GIBCO) and incubated at 37 °C in 5% CO2. The plates were incubated over-night and then cotransfected with 1 μg (mouse TLR7) or 0.3 μg (mouse TLR9) of pNF-kB-Luciferase reporter in a 10:1 ratio with 4 μl of FuGene6 transfection reagent (Promega corporation, USA) following the manufacturer’s instructions. The plates were incubated 24 h. The cells re-seeded into 96-well plate (AGC techno glass) at 2 × 10^4 cells/well in DMEM (GIBCO) with 10% fetal bovine serum (GIBCO), and 10 μg ml^−1 Blastcidin S HCl (GIBCO) and then inhibition with various concentrations of compound. HCQ (mouse TLR7/9, Acros Organics, United Kingdom) was used as positive control. After 30 min, R848 (mouse TLR7/8 ligand) or CpG1826 (mouse TLR9 ligand, Hokkaido System Science Co., Ltd.) added to each well, wherein each final concentration were adjusted to 200 nM R848 (mouse TLR7) or 100 nM CpG1826 (mouse TLR9). The plates were then incubated an additional 6 h at 37 °C in 5% CO2, and then the luciferase activity was measured as activation of mouse TLR7 and 9. The luciferase activity was evaluated as follows: Bright-GloTM Luciferase Assay System (Promega) was added to the incubated sample (100 μl/well); after 2 min, the luminescence intensity of each sample was measured with a luminometer (Envision)."}, "TLR1/2 [1]": {"biological_target": "T2, TLR1/2 (Homo sapiens, UniProt O60603+Q15399)", "T2 construct": "Human Peripheral Blood Mononuclear cells (hPBMCs) were collected from healthy adult donors; endogenous in cells; host or cells: primary human PBMCs", "T2 sequence (Q15399 25-786)": "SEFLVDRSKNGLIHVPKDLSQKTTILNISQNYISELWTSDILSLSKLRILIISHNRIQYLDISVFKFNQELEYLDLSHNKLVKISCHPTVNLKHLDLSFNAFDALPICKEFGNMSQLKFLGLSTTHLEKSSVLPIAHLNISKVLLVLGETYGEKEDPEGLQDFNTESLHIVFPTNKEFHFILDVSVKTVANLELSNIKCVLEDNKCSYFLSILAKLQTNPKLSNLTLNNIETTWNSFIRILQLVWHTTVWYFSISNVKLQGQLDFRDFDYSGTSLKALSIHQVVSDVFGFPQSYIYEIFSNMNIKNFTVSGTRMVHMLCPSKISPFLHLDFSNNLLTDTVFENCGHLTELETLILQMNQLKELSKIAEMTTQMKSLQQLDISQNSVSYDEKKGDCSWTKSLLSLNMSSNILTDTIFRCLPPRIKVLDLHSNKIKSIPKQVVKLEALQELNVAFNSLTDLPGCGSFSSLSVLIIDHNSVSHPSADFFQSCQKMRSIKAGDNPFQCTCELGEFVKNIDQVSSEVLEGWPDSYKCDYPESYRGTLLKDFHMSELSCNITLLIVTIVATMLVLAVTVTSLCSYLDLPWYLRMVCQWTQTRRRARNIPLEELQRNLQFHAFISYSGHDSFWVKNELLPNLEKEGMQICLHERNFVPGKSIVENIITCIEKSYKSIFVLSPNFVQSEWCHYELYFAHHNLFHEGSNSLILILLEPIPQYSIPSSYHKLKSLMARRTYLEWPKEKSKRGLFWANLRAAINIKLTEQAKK", "T2 sequence (O60603 19-784 limits assumed)": "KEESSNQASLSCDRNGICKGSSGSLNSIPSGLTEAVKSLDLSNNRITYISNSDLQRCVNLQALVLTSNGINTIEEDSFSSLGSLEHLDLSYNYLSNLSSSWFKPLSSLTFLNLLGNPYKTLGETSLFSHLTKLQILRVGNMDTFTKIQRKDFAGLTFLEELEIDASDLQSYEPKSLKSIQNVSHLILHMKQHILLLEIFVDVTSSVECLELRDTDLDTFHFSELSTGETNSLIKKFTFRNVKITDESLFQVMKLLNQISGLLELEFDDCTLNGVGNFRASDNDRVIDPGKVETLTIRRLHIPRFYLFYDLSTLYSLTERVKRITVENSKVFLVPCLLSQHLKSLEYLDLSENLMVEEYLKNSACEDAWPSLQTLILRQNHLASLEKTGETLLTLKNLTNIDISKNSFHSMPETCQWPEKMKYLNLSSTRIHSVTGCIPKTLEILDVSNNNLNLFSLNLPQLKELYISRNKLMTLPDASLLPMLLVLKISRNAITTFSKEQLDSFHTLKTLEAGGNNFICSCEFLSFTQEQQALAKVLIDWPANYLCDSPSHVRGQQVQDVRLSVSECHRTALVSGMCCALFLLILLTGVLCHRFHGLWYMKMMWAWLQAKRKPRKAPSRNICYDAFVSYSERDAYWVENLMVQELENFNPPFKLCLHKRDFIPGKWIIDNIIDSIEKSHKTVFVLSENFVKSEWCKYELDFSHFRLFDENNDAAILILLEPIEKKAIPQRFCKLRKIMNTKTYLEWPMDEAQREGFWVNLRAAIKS", "assay": "TNF-α production by human PBMC stimulated by TLR1/2 ligand Pam3CSK4 (ELISA)", "conditions": "human PBMCs, 2.5 μM"}, "TLR1/2 [2]": {"biological_target": "T2, TLR1/2", "assay": "TNF-α production by human PBMC stimulated by TLR1/2 ligand Pam3CSK4 (ELISA)", "conditions": "for TLR2-dependent TNF-α production: 2.5 μM; for Mean TNF-α / TNF-α: activator PAM3CSK4, antagonist 2.5 μM; for Mean TNF-α: n = 3; for TNF-α: single replicate", "description": "Human Peripheral Blood Mononuclear cells (hPBMCs) were collected from healthy adult donors. hPBMCs were cultured in round-bottom 96-well plates (BD Falcon, Durham, NC, USA) with a density of 5 × 10^5 cells/well. Plated cells were pretreated with DMSO or 2.5 μM inhibitors for 3 h and then stimulated by indicated ligands, such as R848 or TLR1/2 specific ligand Pam3CSK4 (Invivogen, HongKong, China), for 20 h in […] of RPMI 1640 medium (Gibco, Paisley, UK) supplemented with 10% FBS, Penicillin-Streptomycin-Glutamine (Gibco, Paisley, UK), 50 μM 2-ME medium at 37 °C in the presence of 5% CO2. Supernatants were collected to measure secreted cytokines by ELISA. Concentration of human IFN-α and TNF-α in the supernatants was measured with Verikine Human IFN-α Multi-Subtype Serum ELISA Kit (PBL Assay Science, Piscataway, NJ, USA) and Human TNF-α Uncoated ELISA (ThermoFisher Scientific, Carlsbad, CA, USA), respectively. This study was approved by the Research Ethics Committee of IMSUT (accession number: 30-100-B20190419)."}, "[3]": {"conditions": "compound 0.0001 nM (as headed), R848 200 nM"}, "[4]": {"conditions": "compound 0.001 nM (as headed), R848 200 nM"}, "[5]": {"conditions": "compound 0.003 nM (as headed), R848 200 nM"}, "[6]": {"conditions": "compound 0.01 nM (as headed), R848 200 nM"}, "[7]": {"conditions": "compound 0.03 nM (as headed), R848 200 nM"}, "[8]": {"conditions": "compound 0.1 nM (as headed), R848 200 nM"}, "[9]": {"conditions": "compound 0.3 nM (as headed), R848 200 nM"}, "[10]": {"conditions": "compound 1 nM (as headed), R848 200 nM"}, "[11]": {"conditions": "compound 3 nM (as headed), R848 200 nM"}, "[12]": {"conditions": "compound 10 nM (as headed), R848 200 nM"}, "[13]": {"conditions": "compound 30 nM (as headed), R848 200 nM"}, "[14]": {"conditions": "compound 100 nM (as headed), R848 200 nM"}},
  "note": "Values joined by “and” are separate entries in the source; they are usually repeats but may differ in a detail not shown here. Equal entries are not always repeated.",
  "data": [
    {"smiles": "CCN(CCO)CCCC(C)Nc1ccnc2cc(Cl)ccc12", "note": "(stereo not shown) [HCQ, hydroxychloroquine, reference compound]", "values": [
      {"measurement": "mouse TLR7 activity, reporter signal", "setting": "mouse TLR7; [3]", "value": 7166},
      {"measurement": "mouse TLR7 activity, reporter signal", "setting": "mouse TLR7; [4]", "value": 7642},
      {"measurement": "mouse TLR7 activity, reporter signal", "setting": "mouse TLR7; [5]", "value": 8310},
      {"measurement": "mouse TLR7 activity, reporter signal", "setting": "mouse TLR7; [6]", "value": 7288},
      {"measurement": "mouse TLR7 activity, reporter signal", "setting": "mouse TLR7; [7]", "value": 6268},
      {"measurement": "mouse TLR7 activity, reporter signal", "setting": "mouse TLR7; [8]", "value": 6670},
      {"measurement": "mouse TLR7 activity, reporter signal", "setting": "mouse TLR7; [9]", "value": 9264},
      {"measurement": "mouse TLR7 activity, reporter signal", "setting": "mouse TLR7; [10]", "value": 7190},
      {"measurement": "mouse TLR7 activity, reporter signal", "setting": "mouse TLR7; [11]", "value": 9456},
      {"measurement": "mouse TLR7 activity, reporter signal", "setting": "mouse TLR7; [12]", "value": 3934},
      {"measurement": "mouse TLR7 activity, reporter signal", "setting": "mouse TLR7; [13]", "value": 558},
      {"measurement": "mouse TLR7 activity, reporter signal", "setting": "mouse TLR7; [14]", "value": 1958}
    ]},
    {"smiles": "CCOc1nc(N)c2nc(-c3cncc(F)c3)n(Cc3ccc(CN4C[C@@H]5C[C@H]4CN5C)cc3)c2n1", "note": "[Cpd-6]", "values": [
      {"measurement": "cytotoxicity", "setting": "TLR1/2 [1]", "value": "not cytotoxic"},
      {"measurement": "TLR2-dependent TNF-α production", "setting": "TLR1/2 [2]", "value": "neither Cpd-6 nor Cpd-7 blocked"},
      {"measurement": "Mean TNF-α", "setting": "TLR1/2 [2]", "value": 2207.35, "unit": "pg/mL"},
      {"measurement": "TNF-α", "setting": "TLR1/2 [2]", "value": "2553.64 pg/mL and 2237.72 pg/mL and 1830.68 pg/mL"}
    ]},
    {"smiles": "CCOc1nc(C)c2nc(-c3cncc(F)c3)n(Cc3ccc(CN4C[C@@H]5C[C@H]4CN5C)cc3)c2n1", "note": "[Cpd-7]", "values": [
      {"measurement": "cytotoxicity", "setting": "TLR1/2 [1]", "value": "not cytotoxic"},
      {"measurement": "TLR2-dependent TNF-α production", "setting": "TLR1/2 [2]", "value": "neither Cpd-6 nor Cpd-7 blocked"},
      {"measurement": "Mean TNF-α", "setting": "TLR1/2 [2]", "value": 2407.5, "unit": "pg/mL"},
      {"measurement": "TNF-α", "setting": "TLR1/2 [2]", "value": "2596.39 pg/mL and 2051.11 pg/mL and 2574.99 pg/mL"},
      {"measurement": "selectivity mouse TLR7 vs TLR9", "setting": "mouse TLR7", "value": "TLR7-selective"},
      {"measurement": "IC50", "setting": "mouse TLR7; R848 200 nM", "value": 192, "unit": "nM"},
      {"measurement": "mouse TLR7 activity, reporter signal", "setting": "mouse TLR7; [3]", "value": 7166},
      {"measurement": "mouse TLR7 activity, reporter signal", "setting": "mouse TLR7; [4]", "value": 5248},
      {"measurement": "mouse TLR7 activity, reporter signal", "setting": "mouse TLR7; [5]", "value": 4474},
      {"measurement": "mouse TLR7 activity, reporter signal", "setting": "mouse TLR7; [6]", "value": 4918},
      {"measurement": "mouse TLR7 activity, reporter signal", "setting": "mouse TLR7; [7]", "value": 5112},
      {"measurement": "mouse TLR7 activity, reporter signal", "setting": "mouse TLR7; [8]", "value": 4262},
      {"measurement": "mouse TLR7 activity, reporter signal", "setting": "mouse TLR7; [9]", "value": 2860},
      {"measurement": "mouse TLR7 activity, reporter signal", "setting": "mouse TLR7; [10]", "value": 1240},
      {"measurement": "mouse TLR7 activity, reporter signal", "setting": "mouse TLR7; [11]", "value": 1308},
      {"measurement": "mouse TLR7 activity, reporter signal", "setting": "mouse TLR7; [12]", "value": 550},
      {"measurement": "mouse TLR7 activity, reporter signal", "setting": "mouse TLR7; [13]", "value": 0},
      {"measurement": "mouse TLR7 activity, reporter signal", "setting": "mouse TLR7; [14]", "value": 0}
    ]}
  ]
}
